# Experimental data published in patent US10869846B2, “N-acetylcysteine amide (NAC amide) in the treatment of diseases and conditions associated with oxidative stress” (SENTIENT LIFESCIENCES, INC., priority 2005, dated 2020).
# System: PC12 cells
# Assay: Morphological assessment of glutamate toxicity
# Format: cell-based
# Conditions: 10 mM glutamate, 750 μM NAC amide, 24 hours
# Protocol: Cell culture and toxicity studies: Stock culture of PC12 cells, purchased from ATCC, were grown in 75 cm^2 tissue culture flasks in RPMI 1640, supplemented with 10% (v/v) heat-inactivated horse serum, and 5% (v/v) fetal bovine serum, to which 1% (v/v) penicillin and streptomycin were added. Cultures were maintained at 37° C. in a humidified atmosphere containing 5% CO2. The cells were passaged twice a week. Unless specified, all of the experiments were performed using Dulbecco's modified Eagle's medium (DMEM) as differentiation medium, supplemented with 0.5% (v/v) fetal bovine serum, 1% (v/v) penicillin and streptomycin. PC12 cells were plated at a density of 25×10^3 cells/well in a 24-well, collagen-coated plate for morphological assessment. The plate was divided into five groups in triplicate: 1) control: no glutamate, no NAC amide; 2) Nerve Growth Factor (NGF) control: NGF (100 ng/ml), no glutamate, no NAC amide; 3) NAC amide only: NGF (100 ng/ml), no glutamate, NAC amide (750 μM); 4) glutamate only: NGF (100 ng/ml), glutamate (10 mM), no NAC amide; and 5) Glu+NAC amide: NGF (100 ng/ml), glutamate (10 mM), NAC amide (750 μM). […]
# Glutamate toxicity was evaluated by 1) morphological assessment of PC12 cells in the presence of glutamate; 2) measuring the amount of LDH released in the media 24 h after glutamate exposure; and 3) measuring cell viability using the MTS assay. […]
substance,measurement,value
N-acetylcysteine amide [NAC amide],"protection from glutamate toxicity (neurite morphology, light microscopy)",slightly decreasing the bleb formation on neurites
